Data set [1] relates to Pseudomonas aeruginosa. The experiment in a line: Antibacterial activity against Pseudomonas aeruginosa ATCC 27853 assessed as inhibition of bacterial growth by CLSI protocol based microtiter broth dilution method. The class given is functional. (In general: Dilution methods test growth across graded concentrations, often in twofold steps.)
Data set [2] relates to Acinetobacter baumannii. Kind of data set: Antibacterial activity against Acinetobacter baumannii BAA-16051 assessed as inhibition of bacterial growth by CLSI protocol based microtiter broth dilution method. The class given is functional.
The subject of data set [3] is Klebsiella pneumoniae. The experiment in a line: Antibacterial activity against Klebsiella pneumoniae ATCC 27736 assessed as inhibition of bacterial growth by CLSI protocol based microtiter broth dilution method. The class given is functional.
The test system of data set [4] is Bacillus subtilis. The experiment in a line: Antibacterial activity against Bacillus subtilis incubated for 24 hrs by serial broth dilution method. Format: functional.
Data set [5] deals with Escherichia coli. The experiment in a line: Antibacterial activity against Escherichia coli incubated for 24 hrs by serial broth dilution method. Format: functional.
The nature of data set [6]: (§1) Cytotoxicity against human THP-1 cells assessed as cell survival at 50 uM incubated for 24 hrs by MTT assay (reference value: 100.0 +/- 5.24 %). The note with it: THP-1 cells, read-out: Activity. Format: toxicity, cell-based.
The nature of data set [7]: (§2) Cytotoxicity against human THP-1 cells assessed as cell survival at 100 uM incubated for 24 hrs by MTT assay (reference value: 100.0 +/- 5.24 %). Format: toxicity, cell-based. The settings on record: THP-1 cells, read-out: Activity. (In general: Formazan colour is commonly taken as a measure of viable cells.)
For data set [8], the system named is THP-1. Kind of data set: Cytotoxicity against human THP-1 cells assessed as cell death at 50 uM incubated for 24 hrs by LDH assay (reference value: 0.00 +/- 0.56 %). Format: toxicity, cell-based. The note with it: thp-1, 24 h.
Data set [9] relates to THP-1. Kind of data set: Cytotoxicity against human THP-1 cells assessed as cell death at 100 uM incubated for 24 hrs by LDH assay (reference value: 0.00 +/- 0.56 %). The note with it: thp-1, 24 h. Format: toxicity, cell-based.
In data set [10] the test system is Staphylococcus aureus. Kind of data set: Antibacterial activity against Staphylococcus aureus incubated for 24 hrs by serial broth dilution method. Format: functional.
Data set [11] relates to Pseudomonas aeruginosa. The experiment in a line: Antibacterial activity against Pseudomonas aeruginosa incubated for 24 hrs by serial broth dilution method. The class given is functional.
The subject of data set [12] is Klebsiella pneumoniae. The experiment in a line: Antimicrobial activity against Klebsiella pneumoniae ATCC 27736 infected in neutropenic thigh infection BALB/c mouse model assessed as log reduction in bacterial count in thigh at 50 mg/kg pre-infected with bacteria for 3 to 6 hrs followed by compound administration and measured 36 hrs post infection. The settings on record: time 30-33 hrs. The class given is functional.

Data set [13] has as its system Bacillus subtilis. The experiment in a line: Antibacterial activity against Bacillus subtilis incubated for 16 hrs by CLSI protocol based microtiter broth dilution method. The class given is functional.
Data set [14] has as its system Staphylococcus aureus. The experiment in a line: Antibacterial activity against Staphylococcus aureus incubated for 16 hrs by CLSI protocol based microtiter broth dilution method. Format: functional.
The subject of data set [15] is Escherichia coli. Kind of data set: Antibacterial activity against Escherichia coli incubated for 16 hrs by CLSI protocol based microtiter broth dilution method. The class given is functional.
The test system of data set [16] is Pseudomonas aeruginosa. Kind of data set: Antibacterial activity against Pseudomonas aeruginosa incubated for 16 hrs by CLSI protocol based microtiter broth dilution method. Format: functional.
In data set [17] the test system is THP-1. The data set is described as §1. The class given is toxicity, cell-based. The note with it: thp-1, 24 h, 50 µM.
The test system of data set [18] is THP-1. The data set is described as §2. Format: toxicity, cell-based. The settings on record: thp-1, 24 h, 100 µM.

Values after ≈ are worked out from the molar mass of the structure shown.

In the case of `C[C@@H](O)[C@H]1C(=O)N2C(C(=O)O)=C(S[C@@H]3CN[C@H](C(=O)N(C)C)C3)[C@H](C)[C@H]12` [MEROPENEM], the values for the MIC in data set [1], in data set [2] and in data set [3] were 6.25 µg/mL (≈ 16.3 µM), above 50 µg/mL and 0.78 µg/mL (≈ 2.03 µM), respectively.
Regarding `O=c1oc2ccccc2c(O)c1C(Sc1nc2ccccc2[nH]1)c1ccc(O)cc1` (configuration not stated), the minimum inhibitory concentration (MIC) in data set [4] and in [5] was 250 µg/mL (≈ 600 µM) in each case.
With POLYMYXIN B [listing 1 of 2 here], the results for the MIC in [1], in [2] and in data set [3] were 1.25 µg/mL, 3.12 µg/mL and 1.25 µg/mL, respectively.
Consider `O=c1oc2ccc(Br)cc2cc1-c1nc2ccccc2n1-c1ccc(Br)cc1`, for which the MIC in data set [1], in data set [2] and in data set [3] was above 100 µg/mL each time.
Take `O=c1oc2ccc(Cl)cc2cc1-c1nc2ccccc2[nH]1`: the MIC in data set [1], in [2] and in data set [3] was above 100 µg/mL in each case.
Consider `CN[C@H](CC(C)C)C(=O)N[C@H]1C(=O)N[C@@H](CC(N)=O)C(=O)N[C@H]2C(=O)N[C@H]3C(=O)N[C@H](C(=O)N[C@H](C(=O)O)c4cc(O)cc(O)c4-c4cc3ccc4O)[C@H](O)c3ccc(c(Cl)c3)Oc3cc2cc(c3O[C@@H]2O[C@H](CO)[C@@H](O)[C@H](O)[C@H]2O[C@H]2C[C@](C)(N)[C@H](O)[C@H](C)O2)Oc2ccc(cc2Cl)[C@H]1O` [VANCOMYCIN], for which the values for the minimum inhibitory concentration (MIC) in data set [1], in data set [2] and in data set [3] were above 50 µg/mL, 12.5 µg/mL (≈ 8.63 µM) and above 50 µg/mL, respectively. For the same compound, in [6], the viability at 24 h, 50 µM turned out to be 66.1%. For the same compound, in data set [7], the viability at 24 h, 100 µM came to 65.9%. Moreover, the Activity turned out to be 6.99% in data set [8] and 13.88% in [9].
For the compound `O=c1oc2ccc(Cl)cc2cc1-c1nc2ccccc2n1-c1ccc(Cl)cc1`, the MIC in data set [1], in [2] and in data set [3] was above 100 µg/mL in each case.
As for `O=c1oc2ccc(Br)cc2cc1-c1nc2ccccc2[nH]1`, the MIC in [1], in data set [2] and in [3] was above 100 µg/mL in each case.
On to `O=c1oc2ccc(Br)cc2cc1-c1nc2ccccc2n1-c1ccccc1`, for which the MIC in [1], in data set [2] and in [3] was above 100 µg/mL throughout.
On to `O=C(CC(Sc1nc2ccccc2[nH]1)c1ccccc1)c1cc2ccccc2oc1=O` (configuration not stated), for which the MIC – broadly, the lowest concentration that inhibits growth of the organism – in data set [4] worked out at 2300 µg/mL (≈ 5390 µM); in data set [5], 2100 µg/mL (≈ 4920 µM); in data set [10], 2400 µg/mL (≈ 5630 µM); in data set [11], 2200 µg/mL (≈ 5160 µM).
Turning to `O=c1oc2ccccc2cc1-c1nc2ccccc2n1-c1ccc(Cl)cc1`, the MIC in data set [1], in data set [2] and in data set [3] was above 100 µg/mL each time.
For `Cc1ccc(-n2c(-c3cc4ccccc4oc3=O)nc3ccccc32)cc1`, the MIC in [1] was above 100 µg/mL; in data set [2], above 100 µg/mL; in [3], 6.25 µg/mL (≈ 17.7 µM). Also, the viability at 24 h, 50 µM in data set [6] turned out to be 94.1%. Moreover, the viability at 24 h, 100 µM in data set [7] was found to be 27.3%. The figures for the Activity in data set [8] and in data set [9] were 11.25% and 16.88%, respectively. In addition, the “log(activity)” value in data set [12] is given as above 2.
Consider `O=c1oc2ccccc2cc1/C(Cn1cnc2ccccc21)=N\Oc1ccc(Cl)cc1`, for which the MIC in data set [13] is 0.95 µg/mL (≈ 2.21 µM); in data set [14] it was 1.56 µg/mL (≈ 3.63 µM); in data set [15], 3.12 µg/mL (≈ 7.26 µM); in data set [16], 3.12 µg/mL (≈ 7.26 µM).
With `CCCCn1c(-c2cc3ccccc3oc2=O)nc2ccccc21`, the MIC is above 100 µg/mL in data set [1], above 100 µg/mL in data set [2] and 6.25 µg/mL (≈ 19.6 µM) in [3]. The viability at 24 h, 50 µM in data set [6] turned out to be 89.7%. The viability at 24 h, 100 µM in data set [7] came out at 27.7%. The Activity in data set [8] is 8.01%; in data set [9] it was 11.43%. For the same compound, in [12], the “log(activity)” value was above 2.
With `Cc1ccc(-n2c(-c3cc4cc(Br)ccc4oc3=O)nc3ccccc32)cc1`, the MIC in [1], in [2] and in [3] was above 100 µg/mL in each case.
For the compound POLYMYXIN B [listing 2 of 2 here], the Activity in [17] is reported as 72.77%; in data set [18] it was 54.94%; in data set [8], 19.64%; in [9], 30.59%.
Turning to `O=c1oc2ccccc2cc1-c1nc2ccccc2n1-c1ccccc1`, the MIC in data set [1], in [2] and in data set [3] was above 100 µg/mL throughout.
With `Cc1ccc(-n2c(-c3cc4cc(Cl)ccc4oc3=O)nc3ccccc32)cc1`, the MIC in data set [1], in data set [2] and in [3] was above 100 µg/mL in each case.
Regarding `O=c1oc2ccccc2cc1-c1nc2ccccc2n1-c1ccc(Br)cc1`, the MIC in [1], in data set [2] and in [3] was above 100 µg/mL in each case.
Regarding `O=c1oc2ccc(Cl)cc2cc1-c1nc2ccccc2n1-c1ccc(Br)cc1`, the MIC in data set [1], in data set [2] and in data set [3] was above 100 µg/mL in each case.
As to `O=c1oc2ccc(Cl)cc2cc1-c1nc2ccccc2n1-c1ccccc1`, the minimum inhibitory concentration (MIC) in data set [1], in data set [2] and in data set [3] was above 100 µg/mL throughout.
As to `O=c1oc2ccc(Br)cc2cc1-c1nc2ccccc2n1-c1ccc(Cl)cc1`, the MIC in [1], in [2] and in data set [3] was above 100 µg/mL throughout.

(Values after ChEMBL document CHEMBL5584260, “Identification of coumarin - benzimidazole hybrids as potential antibacterial agents: Synthesis, in vitro and in vivo biological assessment, and ADMET prediction” (Bioorg Med Chem Lett, 2024).)
